Experimental data published in US6864086B2, “Nitric oxide-scavenging system for culturing oocytes, embryos, or other cells” (Board of Supervisors of Louisiana State University and …, priority 1998, dated 2005).
“And” between values parts separate entries of the source, which are not always exact repeats. Equal values may be shown once. Marks after values point to notes of the source that are not given here.

How the values were obtained:
Type in all cases: cell-based
bovine blastocysts = experiment: Example 8 supplemental: blastocyst cell number by Hoechst 33342 stain; details: 8 days after insemination; Hb 1 μg/ml added to culture medium; vs. 124.2±8.4
Description: In Example 8, bovine follicular oocytes were collected from November 1996 to May 1997, and matured and fertilized in culture. (Oocytes collected during summer and early fall were not used in this study, to avoid interference from environmental heat stress on in vitro survival of embryos.) IVF embryos were collected at 18 h post-insemination and cultured in mBECM supplemented with FBS (10%, v/v), to which 0 or 1 μg/ml Hb (from bovine, mainly methemoglobin, H-2500, Sigma Co.) was added. Development of embryos to the 2-cell, 8-cell, 16-cell, morula, and blastocyst stages was monitored 48, 60, 120, 144 and 192 h post-insemination, respectively. As a supplemental experiment, some blastocysts in each treatment (20 or 28) were randomly collected, and the cell number of the blastocysts was counted by use of Hoechst stain 33342 and a fluorescent microscope (Diaphod, Nikkon, Tokyo, Japan). This experiment used 1675 embryos in 25 replicates, with IVF embryos randomly allotted among treatments.

[1] = system: 8-cell bovine embryos cultured singly; experiment: Example 7: Hb (1 μg/ml) in mBECM-S, 8-cell embryos derived from Hb-containing co-culture, cultured singly
Description: (§1) mBECM containing 10 μM β-mercaptoethanol was used to culture embryos, as described in J. Lim et al., “Roles of growth factors in the development of bovine embryos fertilized in vitro and cultured singly in a defined medium,” Reprod. Fertil. Dev., 8, 1199-1205 (1996). To culture individual 8-cell embryos we used mBECM supplemented with 1 ng/ml platelet derived growth factor type AB (PDGF; Upstate Biotechnology Inc., Lake Placid, N.Y.), 1 ng/ml transforming growth factor-β (TGF; R & D System, Minneapolis, Minn.), 50 ng/ml arachidonic acid (AA; Cayman Chemical Co., Ann Arbor, Mich.), 100 μM glutathione (GSH; Sigma Co.) and 1 mg/ml polyvinyl alcohol (PVA) (mBECM-S). mBECM to which 10% (v/v) FBS was added (mBECM-C) was used for co-culturing inseminated zygotes with CGs and for producing 8-cell embryos. Osmolarity of the medium was maintained within the range of 265-290 mOsm.
(§2) The bovine cumulus-oocyte complexes (COCs) used were collected in Madison, Wis. (BOMED, Inc.), and were shipped in 2-ml of maturation medium in a battery powered incubator via overnight express mail service. Oocytes matured during transit and arrived within 24 h after exposure to maturation medium, pre-equilibrated at 39° C. in 5% CO2 in air. At 22-24 h after exposure to the medium, the COCs were inseminated in vitro as described in J. Lim et al., “Intracytoplasmic glutathione concentration and the role of β-mercaptoethanol in preimplantation development of bovine embryos,” Theriogenology, 46, 429-439 (1996). At 18 h post-insemination, COCs were cultured in groups (30-35 embryos) in a 4-well multidish (Nunc, Roskilde, Denmark) containing 0.8-ml of mBECM-C. Embryos were dislodged from CGs at 36-48 h post-insemination.
In Example 1, embryos (83-85 per group) collected 18 h post-insemination were cultured in mBECM-C, to which 0, 0.008, or 0.04 mM SNP was added at 18 or 60 h post-insemination. In Example 2, 8-cell embryos (80 per group) were produced in a co-culture system containing CGs and mBECM-C, and then beginning at 60 h post-insemination were cultured singly in a defined culture medium (mBECM-S), to which 0, 0.0016, 0.008, or 0.04 mM of SNP (S-0501, Sigma Co.) was added. In Example 3 embryos, either uncleaved (n=99) or developed to the 2-cell stage (90), were collected 48 h post-insemination; and cleaved embryos, either developed to the morula stage (69) or degenerate (63) were collected 144 h post-insemination. NO metabolites were then measured in the embryos. In Example 4, three groups of 95 zygotes each were co-cultured with CGs in mBECM-C, to which 0, 1, or 10 μg/ml Hb (bovine, mainly methemoglobin, H-2500, Sigma Co.) was added. […] Inseminated oocytes (104 per group) were co-cultured with CGs in MBECM-C up to 192 h post-insemination; and Hb (1 μg/ml) was added to the medium at 18, 60, or 144 h post-insemination. In Example 6, inseminated oocytes (93 per group) were cultured in the presence or absence of CGs in mBECM-C to which either 0 or 1 μg/ml Hb was added. […]
Oocytes or 8-cell embryos were randomly and equally allocated to each treatment group. In Examples 1, 2, and 4-7, oocytes or embryos that had developed to the 2-cell, 8-cell, >8-cell, 16-cell morula, and blastocyst stages were individually scored ‘1’ (developed) at 48, 60, 96, 120, 144 and 192 h post-insemination, respectively. […] Sums of the scores in each stage of development were evaluated by analysis of variance (ANOVA) using the general linear model (PROC-GLM) in the SAS program software. […]

[2] = system: bovine embryos co-cultured with granulosa cells; experiment: Example 4: Hb (1 or 10 μg/ml) added to mBECM-C, embryos co-cultured with granulosa cells
Description: as §1, §2
(§3) In Example 1, embryos (83-85 per group) collected 18 h post-insemination were cultured in mBECM-C, to which 0, 0.008, or 0.04 mM SNP was added at 18 or 60 h post-insemination. In Example 2, 8-cell embryos (80 per group) were produced in a co-culture system containing CGs and mBECM-C, and then beginning at 60 h post-insemination were cultured singly in a defined culture medium (mBECM-S), to which 0, 0.0016, 0.008, or 0.04 mM of SNP (S-0501, Sigma Co.) was added. In Example 3 embryos, either uncleaved (n=99) or developed to the 2-cell stage (90), were collected 48 h post-insemination; and cleaved embryos, either developed to the morula stage (69) or degenerate (63) were collected 144 h post-insemination. NO metabolites were then measured in the embryos. In Example 4, three groups of 95 zygotes each were co-cultured with CGs in mBECM-C, to which 0, 1, or 10 μg/ml Hb (bovine, mainly methemoglobin, H-2500, Sigma Co.) was added. […] Inseminated oocytes (104 per group) were co-cultured with CGs in MBECM-C up to 192 h post-insemination; and Hb (1 μg/ml) was added to the medium at 18, 60, or 144 h post-insemination. In Example 6, inseminated oocytes (93 per group) were cultured in the presence or absence of CGs in mBECM-C to which either 0 or 1 μg/ml Hb was added. In Example 7, 8-cell embryos (100 per group), obtained after culture in mBECM-C supplemented with Hb (1 μg/ml), were cultured singly in mBECM-S, with or without Hb.
(§4) Oocytes or 8-cell embryos were randomly and equally allocated to each treatment group. In Examples 1, 2, and 4-7, oocytes or embryos that had developed to the 2-cell, 8-cell, >8-cell, 16-cell morula, and blastocyst stages were individually scored ‘1’ (developed) at 48, 60, 96, 120, 144 and 192 h post-insemination, respectively. […] Sums of the scores in each stage of development were evaluated by analysis of variance (ANOVA) using the general linear model (PROC-GLM) in the SAS program software. In Example 3, concentrations of NO metabolites in embryos were subjected to ANOVA. […] Differences were regarded as statistically significant where P values were less than 0.05.

[3] = system: bovine embryos cultured in groups; experiment: Example 6: Hb (1 μg/ml) in mBECM-C in presence or absence of cumulus-granulosa cells
Description: as §1, §2, §3, §4

## hemoglobin [Hb]
Bovine blastocysts
  number of blastocyst cells: 128.6±7.1
[1]; Hb 1 μg/ml present in mBECM-S, 100 8-cell embryos, examined 96 h
  Number of embryos developed to >8-cell: 68
[1]; Hb 1 μg/ml present in mBECM-S, 100 8-cell embryos, examined 120 h
  Number of embryos developed to 16-cell: 44
[1]; Hb 1 μg/ml present in mBECM-S, 100 8-cell embryos, examined 144 h
  Number of embryos developed to Morula: 26
[1]; Hb 1 μg/ml present in mBECM-S, 100 8-cell embryos, examined 192 h
  Number of embryos developed to Blastocyst: 8
[1]; Hb added to mBECM-S, P>0.09
  effect on proportions of 8-cell embryos developing to each embryonic stage: no significant effect
[2]; Hb 1 μg/ml in mBECM-C
  Percent of Embryos Developed to 2-cell: 81%
  Percent of Embryos Developed to 16-cell: 52%
  Percent of Embryos Developed to >8-cell: 60%
  Percent of Embryos Developed to Blastocyst: 34% and 34^b %
  Percent of Embryos Developed to Morula: 46%
[2]; Hb 10 μg/ml in mBECM-C
  Percent of Embryos Developed to 2-cell: 78%
  Percent of Embryos Developed to 16-cell: 43%
  Percent of Embryos Developed to >8-cell: 53%
  Percent of Embryos Developed to Blastocyst: 27% and 27^ab %
  Percent of Embryos Developed to Morula: 41%
[3]; Hb 1 μg/ml + CG
  Percent of Embryos Developed to 2-cell: 77%
  Percent of Embryos Developed to 8-cell: 55%
  Percent of Embryos Developed to 16-cell: 51% and 51^b %
  Percent of Embryos Developed to Blastocyst: 33% and 33^b %
  Percent of Embryos Developed to Morula: 40% and 40^b %
[3]; Hb 1 μg/ml only, absence of CG
  Percent of Embryos Developed to 2-cell: 73%
  Percent of Embryos Developed to 8-cell: 52%
  Percent of Embryos Developed to 16-cell: 34^a %
  Percent of Embryos Developed to Blastocyst: 19^a %
  Percent of Embryos Developed to Morula: 27^ab %
[3]; Hb 1 μg/ml, cultured in the absence of CG
  promotion of pre-hatching development of embryos: not seen to promote
